The test concerns the target IgE-Tb / sFcεRIα-Y131A-AF488 (Homo sapiens, UniProt P01854, N146Q/N252Q). Nature of the test: IgE-Tb / sFcεRIα-Y131A-AF488 FRET assay (protocol for examples 234 to 501). It is filed as binding. To be noted: examples 234 to 501: compound with IgE-Tb 30 minutes before sFcεRIα-Y131A-AF488, incubated 18 hours at room temperature; read-out: Y131A FRET IC50 range. In short, it runs like this: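 Compounds (10-point 3-fold series, top usually 10 μM, 2% DMSO) preincubated 30 min with 5 nM IgE-Tb, then 25 nM sFcεRIα-Y131A-AF488 added; 18 h at room temperature in the dark. TR-FRET ratio 520/490 nm after 337 nm excitation, background-subtracted; IC50 by four-parameter logistic fit.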

Broadly, the IC50 is the concentration that inhibits the measured activity by half.

Sequence of IgE-Tb / sFcεRIα-Y131A-AF488 (P01854 whole entry N146Q/N252Q): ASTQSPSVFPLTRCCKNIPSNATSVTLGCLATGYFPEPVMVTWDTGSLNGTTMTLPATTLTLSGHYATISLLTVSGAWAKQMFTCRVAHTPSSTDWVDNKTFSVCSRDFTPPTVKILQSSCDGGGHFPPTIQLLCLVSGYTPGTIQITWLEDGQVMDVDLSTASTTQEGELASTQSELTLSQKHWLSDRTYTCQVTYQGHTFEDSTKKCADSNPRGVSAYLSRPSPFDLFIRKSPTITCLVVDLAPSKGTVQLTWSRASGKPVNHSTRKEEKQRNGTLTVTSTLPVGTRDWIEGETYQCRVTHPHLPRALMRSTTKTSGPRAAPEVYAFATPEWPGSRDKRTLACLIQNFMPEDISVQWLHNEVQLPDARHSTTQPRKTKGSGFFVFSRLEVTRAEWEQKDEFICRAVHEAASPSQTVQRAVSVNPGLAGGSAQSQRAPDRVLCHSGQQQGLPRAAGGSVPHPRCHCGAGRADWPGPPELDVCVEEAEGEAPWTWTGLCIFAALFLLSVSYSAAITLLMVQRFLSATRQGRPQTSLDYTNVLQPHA

With `Cn1nc(OC(F)F)cc1Nc1nncn1[C@H]1CCc2sc(NC(=O)C3CC3)c(C(=O)NC3CC(F)(F)C3)c2C1` [Example 450, (5S)-2-(cyclopropanecarbonylamino)-N-(3,3-difluorocyclobutyl)-5-[3-[[5-(difluoromethoxy)-2-methylpyrazol-3-yl]amino]-1,2,4-triazol-4-yl]-4,5,6,7-tetrahydro-1-benzothiophene-3-carboxamide], the IC50 is under 1 µM.
Regarding `Cn1nc(OC(F)F)cc1Nc1nncn1[C@H]1CCc2sc(NC(=O)C3CC3)c(C(=O)NCC3CCC3(F)F)c2C1` (stereo partly drawn) [Example 451, (5S)-2-(cyclopropanecarbonylamino)-N-[(2,2-difluorocyclobutyl)methyl]-5-[3-[[5-(difluoromethoxy)-2-methylpyrazol-3-yl]amino]-1,2,4-triazol-4-yl]-4,5,6,7-tetrahydro-1-benzothiophene-3-carboxamide], the IC50 is under 1 µM.
Next, `CC1CC1CNC(=O)c1c(NC(=O)C2CC2)sc2c1C[C@@H](n1cnnc1Nc1cc(OC(F)F)nn1C)CC2` (stereo partly drawn) [Example 453, (5S)-2-(cyclopropanecarbonylamino)-5-[3-[[5-(difluoromethoxy)-2-methylpyrazol-3-yl]amino]-1,2,4-triazol-4-yl]-N-[(2-methylcyclopropyl)methyl]-4,5,6,7-tetrahydro-1-benzothiophene-3-carboxamide]: under 1 µM.
`Cn1nc(OC(F)F)cc1Nc1nncn1[C@H]1CCc2sc(NC(=O)C3CC3)c(C(=O)NC[C@H]3C[C@H](F)C3)c2C1` [Example 456, (5S)-2-(cyclopropanecarbonylamino)-5-[3-[[5-(difluoromethoxy)-2-methylpyrazol-3-yl]amino]-1,2,4-triazol-4-yl]-N-[trans-(3-fluorocyclobutyl)methyl]-4,5,6,7-tetrahydro-1-benzothiophene-3-carboxamide]: the IC50 is under 1 µM.
Next, `Cn1nc(OC(F)F)cc1Nc1nncn1[C@H]1CCc2sc(NC(=O)C3CC3)c(C(=O)NCC3CCC3F)c2C1` (stereo partly drawn) [Example 457, (5S)-2-(cyclopropanecarbonylamino)-5-[3-[[5-(difluoromethoxy)-2-methylpyrazol-3-yl]amino]-1,2,4-triazol-4-yl]-N-[(2-fluorocyclobutyl)methyl]-4,5,6,7-tetrahydro-1-benzothiophene-3-carboxamide]: under 1 µM; `Cn1nc(OC(F)F)cc1Nc1nncn1[C@H]1CCc2sc(NC(=O)C3CC3)c(C(=O)NC[C@H]3C[C@H]3F)c2C1` [Example 461, (5S)-2-(cyclopropanecarbonylamino)-5-[3-[[5-(difluoromethoxy)-2-methylpyrazol-3-yl]amino]-1,2,4-triazol-4-yl]-N-[[(1R,2R)-2-fluorocyclopropyl]methyl]-4,5,6,7-tetrahydro-1-benzothiophene-3-carboxamide]: under 1 µM.
On to `Cn1nc(OC(F)F)cc1Nc1nncn1[C@H]1CCc2sc(NC(=O)C3CC3)c(C(=O)NC[C@H]3C[C@@H]3F)c2C1` [Example 462, (5S)-2-(cyclopropanecarbonylamino)-5-[3-[[5-(difluoromethoxy)-2-methylpyrazol-3-yl]amino]-1,2,4-triazol-4-yl]-N-[[(1R,2S)-2-fluorocyclopropyl]methyl]-4,5,6,7-tetrahydro-1-benzothiophene-3-carboxamide], for which the IC50 was under 1 µM.
To `COc1cc(Nc2nncn2[C@H]2CCc3sc(NC(=O)[C@H]4C[C@@H]4C)c(C(=O)NC[C@H]4C[C@@H]4F)c3C2)n(C)n1` [Example 466, (5S)—N-[[(1R,2S)-2-fluorocyclopropyl]methyl]-5-[3-[(5-methoxy-2-methylpyrazol-3-yl)amino]-1,2,4-triazol-4-yl]-2-[[(1S,2S)-2-methylcyclopropanecarbonyl]amino]-4,5,6,7-tetrahydro-1-benzothiophene-3-carboxamide] belongs under 1 µM.
Next, `COc1cc(Nc2nncn2[C@H]2CCc3sc(NC(=O)[C@H]4C[C@@H]4C)c(C(=O)NC[C@H]4C[C@H](F)C4)c3C2)n(C)n1` [Example 467, (5S)—N-[trans-(3-fluorocyclobutyl)methyl]-5-[3-[(5-methoxy-2-methylpyrazol-3-yl)amino]-1,2,4-triazol-4-yl]-2-[[(1S,2S)-2-methylcyclopropanecarbonyl]amino]-4,5,6,7-tetrahydro-1-benzothiophene-3-carboxamide]: under 1 µM.
Next, `COc1cc(Nc2nncn2[C@H]2CCc3sc(NC(=O)[C@H]4C[C@@H]4C)c(C(=O)NCC4CC4)c3C2)n(C)n1` [Example 468, (5S)—N-(cyclopropylmethyl)-5-[3-[(5-methoxy-2-methylpyrazol-3-yl)amino]-1,2,4-triazol-4-yl]-2-[[(1S,2S)-2-methylcyclopropanecarbonyl]amino]-4,5,6,7-tetrahydro-1-benzothiophene-3-carboxamide]: under 1 µM; `Cn1nc(C(F)F)cc1Nc1nncn1[C@H]1CCc2sc(NC(=O)[C@H]3C[C@H](F)C3)c(C(=O)NC[C@H]3C[C@@H]3F)c2C1` [Example 471, (5S)-5-[3-[[5-(difluoromethyl)-2-methylpyrazol-3-yl]amino]-1,2,4-triazol-4-yl]-2-[trans-(3-fluorocyclobutanecarbonyl)amino]-N-[[(1R,2S)-2-fluorocyclopropyl]methyl]-4,5,6,7-tetrahydro-1-benzothiophene-3-carboxamide]: under 1 µM; `Cn1nc(C(F)F)cc1Nc1nncn1[C@H]1CCc2sc(NC(=O)[C@H]3C[C@H](F)C3)c(C(=O)NCC3CCC3)c2C1` [Example 473, (5S)—N-(cyclobutylmethyl)-5-[3-[[5-(difluoromethyl)-2-methylpyrazol-3-yl]amino]-1,2,4-triazol-4-yl]-2-[trans-(3-fluorocyclobutanecarbonyl)amino]-4,5,6,7-tetrahydro-1-benzothiophene-3-carboxamide]: under 1 µM.
Regarding `Cn1nc(C(F)F)cc1Nc1nncn1[C@H]1CCc2sc(NC(=O)C3CC(F)(F)C3)c(C(=O)NC[C@H]3C[C@H]3F)c2C1` [Example 479, (5S)-2-[(3,3-difluorocyclobutanecarbonyl)amino]-5-[3-[[5-(difluoromethyl)-2-methylpyrazol-3-yl]amino]-1,2,4-triazol-4-yl]-N-[[(1R,2R)-2-fluorocyclopropyl]methyl]-4,5,6,7-tetrahydro-1-benzothiophene-3-carboxamide], the IC50 was under 1 µM.
To `Cn1nc(C(F)F)cc1Nc1nncn1[C@H]1CCc2sc(NC(=O)C3CC(F)(F)C3)c(C(=O)N[C@H]3C[C@H](F)C3)c2C1` [Example 480, (5S)-2-[(3,3-difluorocyclobutanecarbonyl)amino]-5-[3-[[5-(difluoromethyl)-2-methylpyrazol-3-yl]amino]-1,2,4-triazol-4-yl]-N-(trans-3-fluorocyclobutyl)-4,5,6,7-tetrahydro-1-benzothiophene-3-carboxamide] belongs under 1 µM; to `Cn1nc(OC(F)F)cc1Nc1nncn1[C@H]1CCc2sc(NC(=O)[C@H]3C[C@H](F)C3)c(C(=O)NC[C@@H]3C[C@@H]3F)c2C1` [Example 481, (5S)-5-[3-[[5-(difluoromethoxy)-2-methylpyrazol-3-yl]amino]-1,2,4-triazol-4-yl]-2-[trans-(3-fluorocyclobutanecarbonyl)amino]-N-[[(1S,2S)-2-fluorocyclopropyl]methyl]-4,5,6,7-tetrahydro-1-benzothiophene-3-carboxamide], under 1 µM.
Next, `Cn1nc(OC(F)F)cc1Nc1nncn1[C@H]1CCc2sc(NC(=O)[C@H]3C[C@H](F)C3)c(C(=O)NC[C@H]3C[C@H]3F)c2C1` [Example 482, (5S)-5-[3-[[5-(difluoromethoxy)-2-methylpyrazol-3-yl]amino]-1,2,4-triazol-4-yl]-2-[trans-(3-fluorocyclobutanecarbonyl)amino]-N-[[(1R,2R)-2-fluorocyclopropyl]methyl]-4,5,6,7-tetrahydro-1-benzothiophene-3-carboxamide]: under 1 µM.
To `Cn1nc(OC(F)F)cc1Nc1nncn1[C@H]1CCc2sc(NC(=O)[C@H]3C[C@H](F)C3)c(C(=O)NC[C@H]3C[C@@H]3F)c2C1` [Example 483, (5S)-5-[3-[[5-(difluoromethoxy)-2-methylpyrazol-3-yl]amino]-1,2,4-triazol-4-yl]-2-[trans-(3-fluorocyclobutanecarbonyl)amino]-N-[[(1R,2S)-2-fluorocyclopropyl]methyl]-4,5,6,7-tetrahydro-1-benzothiophene-3-carboxamide] belongs under 1 µM; to `Cn1nc(OC(F)F)cc1Nc1nncn1[C@H]1CCc2sc(NC(=O)[C@H]3C[C@H](F)C3)c(C(=O)NC[C@H]3C[C@H](F)C3)c2C1` [Example 486, (5S)-5-[3-[[5-(difluoromethoxy)-2-methylpyrazol-3-yl]amino]-1,2,4-triazol-4-yl]-2-[trans-(3-fluorocyclobutanecarbonyl)amino]-N-[trans-(3-fluorocyclobutyl)methyl]-4,5,6,7-tetrahydro-1-benzothiophene-3-carboxamide], under 1 µM.
As for `Cn1nc(OC(F)F)cc1Nc1nncn1[C@H]1CCc2sc(NC(=O)[C@H]3C[C@H](F)C3)c(C(=O)N[C@H]3C[C@H](F)C3)c2C1` [Example 487, (5S)-5-[3-[[5-(difluoromethoxy)-2-methylpyrazol-3-yl]amino]-1,2,4-triazol-4-yl]-2-[trans-(3-fluorocyclobutanecarbonyl)amino]-N-(trans-3-fluorocyclobutyl)-4,5,6,7-tetrahydro-1-benzothiophene-3-carboxamide], the IC50 is under 1 µM.
To `Cn1nc(OC(F)F)cc1Nc1nncn1[C@H]1CCc2sc(NC(=O)C3CC(F)(F)C3)c(C(=O)NC[C@@H]3C[C@@H]3F)c2C1` [Example 490, (5S)-2-[(3,3-difluorocyclobutanecarbonyl)amino]-5-[3-[[5-(difluoromethoxy)-2-methylpyrazol-3-yl]amino]-1,2,4-triazol-4-yl]-N-[[(1S,2S)-2-fluorocyclopropyl]methyl]-4,5,6,7-tetrahydro-1-benzothiophene-3-carboxamide] belongs under 1 µM.

(Values after US12018021B2 (UCB Biopharma SRL, priority 2018, dated 2024).)
